Consider 19 molecules from patent US8173631B2, “Cyclic amine compounds” (Daiichi Sankyo Company, Limited, priority 2008, dated 2012).

pIC50: −log10 of the molar value.

Assay [1] addresses T1, human calcium-sensing receptor (CaSR) (Homo sapiens, UniProt P41180).
T1 construct: expressed in transfected cells
T1 sequence (P41180 20-1078): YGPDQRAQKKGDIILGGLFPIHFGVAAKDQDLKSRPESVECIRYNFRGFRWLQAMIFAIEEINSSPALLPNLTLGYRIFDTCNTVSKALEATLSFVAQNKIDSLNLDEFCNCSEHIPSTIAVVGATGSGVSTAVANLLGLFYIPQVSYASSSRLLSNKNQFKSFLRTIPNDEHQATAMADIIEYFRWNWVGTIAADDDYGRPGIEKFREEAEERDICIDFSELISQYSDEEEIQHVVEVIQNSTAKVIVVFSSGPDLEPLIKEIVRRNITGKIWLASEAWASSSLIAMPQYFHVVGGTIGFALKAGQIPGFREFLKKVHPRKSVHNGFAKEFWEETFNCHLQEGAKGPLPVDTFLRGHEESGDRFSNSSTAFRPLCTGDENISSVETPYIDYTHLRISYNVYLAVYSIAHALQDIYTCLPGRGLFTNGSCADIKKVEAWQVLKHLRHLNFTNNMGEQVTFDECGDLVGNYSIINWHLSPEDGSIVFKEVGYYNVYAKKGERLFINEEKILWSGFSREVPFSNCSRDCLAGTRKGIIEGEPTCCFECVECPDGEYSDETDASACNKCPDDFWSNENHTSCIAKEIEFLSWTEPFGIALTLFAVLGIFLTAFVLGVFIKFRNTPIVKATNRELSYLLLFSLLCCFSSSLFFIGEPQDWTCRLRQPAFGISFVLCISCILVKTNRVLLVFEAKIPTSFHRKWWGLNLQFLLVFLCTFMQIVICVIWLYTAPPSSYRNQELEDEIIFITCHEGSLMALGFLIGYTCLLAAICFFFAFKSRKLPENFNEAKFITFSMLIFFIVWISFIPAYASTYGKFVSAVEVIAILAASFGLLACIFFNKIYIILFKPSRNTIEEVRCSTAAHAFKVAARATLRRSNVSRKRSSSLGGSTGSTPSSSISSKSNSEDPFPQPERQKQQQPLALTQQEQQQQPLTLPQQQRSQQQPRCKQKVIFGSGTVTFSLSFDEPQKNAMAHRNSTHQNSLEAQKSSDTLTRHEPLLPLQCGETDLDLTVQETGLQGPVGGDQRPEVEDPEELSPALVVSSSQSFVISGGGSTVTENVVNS
Nature of the assay: Inhibitory activity on calcium-sensing receptor (CaSR), intracellular calcium increase as indicator (FLIPR, CHO/hCaSR). The assay is classed as cell-based. To be noted: CHO cells stably expressing human CaSR; inhibition of intracellular Ca increase induced by extracellular CaCl2. A digest of the protocol: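 CHO/hCaSR cells loaded with Calcium 3 dye in HEPES/HBSS (Ca/Mg-free, 2.5 mM probenecid, pH 7.4), then preincubated 15 min with compound (final 1.05–10,000 nM). Challenged with CaCl2 ([…]) and fluorescence followed by FLIPR. IC50 derived from the peak-minus-baseline fluorescence increase.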
(In general: A change in cytosolic calcium serves as a functional read-out for many receptors and channels.)

Assay [2] has as its system PTH secretion. Nature of the assay: Evaluation of PTH secretion promoting activity in a rat (blood serum PTH after oral administration). The assay is classed as in vivo. The settings on record: female F344 rat, oral 3 mg/5 mL/kg, Mean ± S.D., n = 3. The procedure: Evaluation of PTH Secretion Promoting Activity in a Rat
A 10 to 14-week old female F344 rat (Charles River Japan, Inc.) fasted overnight was anesthetized using ether, and blood serum before the administration was prepared by drawing blood from the jugular vein of the animal. Subsequently, the test compound was orally administered at a dose of 3 mg/5 mL/kg using a solvent (0.5% aqueous methyl cellulose solution containing 5% DMA). Blood was drawn from the jugular vein under ether anesthesia at 5, 15, 30, 60, 120, and 240 minutes after the administration of the test compound, and the blood serum was prepared. The blood serum PTH concentration was measured using rat Intact PTH ELISA kit (manufactured by Immutopics, Inc.).

By pIC50 is commonly meant the negative decadic logarithm of the IC50, by convention in mol/L. Regarding `Cc1ccc(C[C@@H]2CCCN2C[C@@H](O)CO[C@H](C)c2cccc(C(F)(F)F)c2CCC(=O)O)cc1F` [Example 9, 3-{2-[(1R)-1-({(2R)-3-[(2S)-2-(3-Fluoro-4-methylbenzyl)pyrrolidin-1-yl]-2-hydroxypropyl}oxy)ethyl]-6-(trifluoromethyl)phenyl}propanoic acid], in assay [1], the pIC50 is at least 5.50. In assay [2], the “Blood Serum PTH (1-84) Concentration, 0 minute” value is on record as 87.9 ± 25.5 pg/mL; the “Blood Serum PTH (1-84) Concentration, After 5 minutes” value is on record as 117.2 ± 32.4 pg/mL; the “Blood Serum PTH (1-84) Concentration, After 15 minutes” value was 476.5 ± 99.7 pg/mL; the “Blood Serum PTH (1-84) Concentration, After 30 minutes” value is reported as 235.6 ± 99.1 pg/mL. In addition, in assay [2], the “Blood Serum PTH (1-84) Concentration, After 60 minutes” value came to 49.1 ± 16.9 pg/mL; the “Blood Serum PTH (1-84) Concentration, After 120 minutes” value was found to be 33.6 ± 5.1 pg/mL; the “Blood Serum PTH (1-84) Concentration, After 240 minutes” value is 117.2 ± 27.7 pg/mL.
Consider `Cc1ccc(C[C@@H]2CCN2C[C@@H](O)CO[C@H](C)c2ccccc2CCC(=O)O)cc1F` [Example 14, 3-{2-[(1R)-1-({(2R)-3-[(2R)-2-(3-Fluoro-4-methylbenzyl)azetidin-1-yl]-2-hydroxypropyl}oxy)ethyl]phenyl}propanoic acid], for which the pIC50 in assay [1] is at least 5.43. For the same molecule, in assay [2], the “Blood Serum PTH (1-84) Concentration, 0 minute” value was determined as 53.3 ± 4.4 pg/mL; the “Blood Serum PTH (1-84) Concentration, After 5 minutes” value was determined as 195.9 ± 16.9 pg/mL; the “Blood Serum PTH (1-84) Concentration, After 15 minutes” value amounted to 429.0 ± 111.0 pg/mL; the “Blood Serum PTH (1-84) Concentration, After 30 minutes” value was found to be 198.2 ± 61.0 pg/mL. Moreover, in assay [2], the “Blood Serum PTH (1-84) Concentration, After 60 minutes” value worked out at 41.8 ± 5.8 pg/mL; the “Blood Serum PTH (1-84) Concentration, After 120 minutes” value is 42.0 ± 8.5 pg/mL; the “Blood Serum PTH (1-84) Concentration, After 240 minutes” value worked out at 64.2 ± 6.3 pg/mL.
As for `Cc1cccc([C@@H](C)OC[C@H](O)CN2CCC[C@H]2Cc2ccc(Cl)c(Cl)c2)c1CCC(=O)O` [Example 162], the pIC50 in assay [1] is at least 5.49.
In the case of `CCc1cc(C[C@@H]2CCCN2C[C@@H](O)CO[C@H](C)c2cccc(C)c2CCC(=O)O)ccc1Cl` [Example 163], the pIC50 in assay [1] was at least 5.48.
Still for that read-out and setting: as for `COc1cccc([C@@H](C)OC[C@H](O)CN2CCC[C@H]2Cc2ccc(Cl)c(Cl)c2)c1CCC(=O)O` [Example 164], the figure is at least 5.50; as for `CCc1cc(C[C@@H]2CCCN2C[C@@H](O)CO[C@H](C)c2cccc(OC)c2CCC(=O)O)ccc1Cl` [Example 165], at least 5.50.
`Cc1ccc(C[C@@H]2CCCN2C[C@@H](O)CO[C@H](C)c2cc(F)ccc2CCC(=O)O)cc1Cl` [Example 166]: the pIC50 in assay [1] is at least 5.48.
Turning to `COc1cccc([C@@H](C)OC[C@H](O)CN2CCC[C@H]2Cc2ccc(C)c(Cl)c2)c1CCC(=O)O` [Example 167], the pIC50 in assay [1] is at least 5.49.
`COc1cccc([C@@H](C)OC[C@H](O)CN2CCC[C@H]2Cc2ccc(Cl)c(F)c2)c1CCC(=O)O` [Example 168]: the pIC50 in assay [1] is at least 5.49.
The same measure, in the same setting: as for `Cc1ccc(C[C@@H]2CCCN2C[C@@H](O)CO[C@H](C)c2cccc(C)c2CCC(=O)O)cc1Cl` [Example 169], the figure is at least 5.47; as for `Cc1cccc([C@@H](C)OC[C@H](O)CN2CCC[C@H]2Cc2ccc(Cl)c(F)c2)c1CCC(=O)O` [Example 170], at least 5.48.
As to `CC[C@@H](OC[C@H](O)CN1CCC[C@H]1Cc1ccc(C)c(Cl)c1)c1cccc(OC)c1CCC(=O)O` [Example 171], the pIC50 in assay [1] is at least 5.50.
On to `CC[C@@H](OC[C@H](O)CN1CCC[C@H]1Cc1ccc(C)c(Cl)c1)c1cccc(C)c1CCC(=O)O` [Example 172], for which the pIC50 in assay [1] was at least 5.48.
Regarding `CC[C@@H](OC[C@H](O)CN1CCC[C@H]1Cc1ccc(Cl)c(F)c1)c1cccc(OC)c1CCC(=O)O` [Example 173], the pIC50 in assay [1] is at least 5.50.
In the case of `Cc1cc(CCC(=O)O)c([C@@H](C)OC[C@H](O)CN2CCC[C@H]2Cc2ccc(C)c(Cl)c2)cc1F` [Example 174], in assay [1], the pIC50 was at least 5.49.
`Cc1cc(CCC(=O)O)c([C@@H](C)OC[C@H](O)CN2CCC[C@H]2Cc2ccc(Cl)c(Cl)c2)cc1F` [Example 175]: in assay [1], the pIC50 was at least 5.51.
In the case of `Cc1ccc(C[C@@H]2CCCN2C[C@@H](O)CO[C@H](C)c2cc(F)c(F)cc2CCC(=O)O)cc1Cl` [Example 176], the pIC50 in assay [1] is at least 5.49.
Consider `C[C@@H](OC[C@H](O)CN1CCC[C@H]1Cc1ccc(Cl)c(Cl)c1)c1cc(F)c(F)cc1CCC(=O)O` [Example 177], for which, in assay [1], the pIC50 is at least 5.51.
Consider `Cc1ccc(C[C@@H]2CCCN2C[C@@H](O)CO[C@H](C)c2ccccc2CCc2nn[nH]n2)cc1F` [Example 178, (2R)-1-[(2S)-2-(3-Fluoro-4-methylbenzyl)pyrrolidin-1-yl]-3-[(1R)-1-{2-[2-(2H-tetrazol-5-yl)ethyl]phenyl}ethoxy]propan-2-ol], for which the pIC50 in assay [1] is at least 5.51.
